ChEMBL document CHEMBL5154693, “N-Methylpropargylamine-Conjugated Hydroxamic Acids as Dual Inhibitors of Monoamine Oxidase A and Histone Deacetylase for Glioma Treatment” (J Med Chem, 2022)
Activity calls are given as the source filed them. No cut-off for these calls is given here.

Key:
[1] = test system: Mus musculus; assay: In vivo inhibition of MAO-A in mouse xenografted with mouse GL26 assessed as decrease in MAO activity in tumor at 50 mg/kg by radiometric analysis; assay type: functional
[2] = target: Histone deacetylase 2 (Homo sapiens, UniProt Q92769); assay: Inhibition of human HDAC2 (379 to 382 residues) using RHKKAc-AMC fluorogenic peptide as substrate by fluorescence assay
Sequence of Histone deacetylase 2 (Q92769 whole entry, the tested form may be a part): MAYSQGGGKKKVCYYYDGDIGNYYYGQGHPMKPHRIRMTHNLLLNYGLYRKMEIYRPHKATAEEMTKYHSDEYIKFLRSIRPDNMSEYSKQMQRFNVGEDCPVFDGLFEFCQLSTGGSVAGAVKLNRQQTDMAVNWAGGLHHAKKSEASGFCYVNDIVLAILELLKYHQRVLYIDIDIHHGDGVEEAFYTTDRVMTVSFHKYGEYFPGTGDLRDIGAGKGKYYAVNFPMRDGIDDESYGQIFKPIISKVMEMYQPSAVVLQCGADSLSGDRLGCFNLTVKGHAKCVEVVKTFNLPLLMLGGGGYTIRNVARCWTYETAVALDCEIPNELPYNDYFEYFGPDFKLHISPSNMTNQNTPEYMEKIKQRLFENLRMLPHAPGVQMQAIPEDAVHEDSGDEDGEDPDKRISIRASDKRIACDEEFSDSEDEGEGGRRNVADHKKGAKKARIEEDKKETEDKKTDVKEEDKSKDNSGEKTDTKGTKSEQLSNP

[3] = test system: Mus musculus; assay: In vivo inhibition of MAO-A in mouse xenografted with mouse GL26 assessed as decrease in MAO activity in tumor at 25 mg/kg, ip administered for 10 days by bioluminescence assay; assay type: functional, organism-based; settings: time 10.0 day
[4] = Toxicity in C57BL6 mouse xenografted with mouse GL26 cells as assessed as last day of survival at 50 mg/kg, ip for 14 days treatment started at 5 days post-infection (Rvb=14 days); assay type: organism-based; settings: in vivo, 336 h, time 14 day
[5] = target: T1, Amine oxidase [flavin-containing] A (Homo sapiens, UniProt P21397); assay: Inhibition of MAO-A (unknown origin) expressed in mouse GL26 cells using 14C 5-hydroxytryptamine as substrate pre-incubated for 20 mins followed by substrate addition measured after 20 mins by liquid scintillation spectroscopy; assay type: cell-based
T1 sequence (P21397 whole entry): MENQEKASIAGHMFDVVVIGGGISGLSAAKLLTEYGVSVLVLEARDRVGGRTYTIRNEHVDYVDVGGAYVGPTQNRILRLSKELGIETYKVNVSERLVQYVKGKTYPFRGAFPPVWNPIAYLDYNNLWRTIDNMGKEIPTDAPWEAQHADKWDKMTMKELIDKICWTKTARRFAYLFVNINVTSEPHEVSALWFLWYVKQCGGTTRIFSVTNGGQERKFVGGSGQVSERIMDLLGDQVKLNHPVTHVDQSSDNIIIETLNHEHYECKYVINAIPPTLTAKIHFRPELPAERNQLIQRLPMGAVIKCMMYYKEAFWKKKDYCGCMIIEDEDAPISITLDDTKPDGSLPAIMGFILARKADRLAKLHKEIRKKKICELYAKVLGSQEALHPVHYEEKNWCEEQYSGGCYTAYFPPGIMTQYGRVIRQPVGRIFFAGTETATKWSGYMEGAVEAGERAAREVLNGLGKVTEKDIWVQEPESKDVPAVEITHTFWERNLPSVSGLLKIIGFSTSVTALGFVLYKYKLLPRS

[6] = Toxicity in mouse bearing intracranial tumor assessed as assessed as median survival time at 25 mg/kg, ip treatment started at 7 dpi (Rvb=18.25 days); assay type: organism-based; settings: in vivo, 438 h
[7] = test system: GL26; assay: Antiproliferative activity against mouse GL26 cells assessed as decrease in number of colonies at 0.625 to 1.25 uM incubated for 48 hrs by colony formation assay; assay type: functional, cell-based; settings: dose 0.625-1.25 µM
[8] = Cytotoxicity against mouse GL26 cells assessed as inhibition of cell growth incubated for 48 hrs by MTT assay; assay type: functional, cell-based; settings: GL26, 48 h
[9] = target: T2, Histone deacetylase 8 (Homo sapiens, UniProt Q9BY41); assay: Inhibition of human HDAC8 (379 to 382 residues) using RHKKAcKAc-AMC fluorogenic peptide as substrate by fluorescence assay
T2 sequence (Q9BY41 whole entry): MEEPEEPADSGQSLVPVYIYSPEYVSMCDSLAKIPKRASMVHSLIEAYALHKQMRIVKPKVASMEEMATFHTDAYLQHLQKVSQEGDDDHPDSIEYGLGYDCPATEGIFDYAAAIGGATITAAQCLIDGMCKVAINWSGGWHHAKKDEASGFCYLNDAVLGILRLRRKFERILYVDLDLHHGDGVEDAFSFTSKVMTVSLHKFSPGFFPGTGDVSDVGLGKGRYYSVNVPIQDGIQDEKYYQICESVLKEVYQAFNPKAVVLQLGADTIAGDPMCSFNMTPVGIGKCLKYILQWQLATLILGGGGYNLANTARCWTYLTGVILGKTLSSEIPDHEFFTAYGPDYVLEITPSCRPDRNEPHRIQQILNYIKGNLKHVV

[10] = test system: GL26; assay: Antitumor activity against mouse GL26 cells implanted in C57BL6 mouse assessed as reduction in tumor size at 50 mg/kg, ip daily measured for 10 days by bioluminescence assay; assay type: functional, organism-based; settings: time 10.0 day
[11] = target: Histone deacetylase 1 (Homo sapiens, UniProt Q13547); assay: Inhibition of human HDAC1 (379 to 382 residues) using RHKKAc-AMC fluorogenic peptide as substrate by fluorescence assay
Sequence of Histone deacetylase 1 (Q13547 whole entry, the tested form may be a part): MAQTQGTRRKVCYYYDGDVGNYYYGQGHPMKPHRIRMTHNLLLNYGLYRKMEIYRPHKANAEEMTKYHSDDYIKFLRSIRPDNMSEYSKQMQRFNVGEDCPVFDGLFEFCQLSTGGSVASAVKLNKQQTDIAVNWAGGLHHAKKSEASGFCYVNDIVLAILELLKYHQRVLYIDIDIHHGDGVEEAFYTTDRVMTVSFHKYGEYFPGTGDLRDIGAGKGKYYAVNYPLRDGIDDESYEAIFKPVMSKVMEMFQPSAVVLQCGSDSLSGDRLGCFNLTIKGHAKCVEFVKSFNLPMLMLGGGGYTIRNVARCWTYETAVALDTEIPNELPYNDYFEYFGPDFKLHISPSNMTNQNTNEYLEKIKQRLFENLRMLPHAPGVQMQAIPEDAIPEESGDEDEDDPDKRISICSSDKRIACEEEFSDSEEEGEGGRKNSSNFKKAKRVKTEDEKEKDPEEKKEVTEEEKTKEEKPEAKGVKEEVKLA

[12] = test system: U-251; assay: cells; assay type: functional, cell-based; settings: Homo sapiens, U-251, 48 h
Description: Cytotoxicity against human TMZ-sensitive U251 cells assessed as inhibition of cell growth incubated for 48 hrs by MTT assay

[13] = Toxicity in mouse bearing intracranial tumor assessed as assessed as median survival time at 50 mg/kg, ip for 14 days treatment started at 5 days post-infection (Rvb=12.8 days); assay type: organism-based; settings: in vivo, 336 h, time 14 day

Question: With `C#CCN(C)CCCOc1ccc(NC(=O)CCCCCCC(=O)NO)cc1Cl` as the compound, how does the Activity [1] read?
Answer: The Activity was “Active”.

Question: What about the IC50 [2] of the same compound?
Answer: The IC50 was 460 nM.

Question: What about the Activity [3] of the same compound?
Answer: The Activity was “Active”.

Question: What about the Survival [4] of the same compound?
Answer: The Survival was 16 days.

Question: And the IC50 [5]?
Answer: Its IC50 is 30 nM.

Question: What about the MST [6] of the same compound?
Answer: The MST was 17.25 days.

Question: And the Activity [7]?
Answer: Its Activity is “Active”.

Question: And the IC50 [8]?
Answer: The IC50 was 6.04 µM.

Question: And the IC50 [9]?
Answer: The IC50 was 330 nM.

Question: And the Activity [10]?
Answer: Its Activity is “Active”.

Question: And the IC50 [11]?
Answer: The IC50 was 140 nM.

Question: What about the IC50 [12] of the same compound?
Answer: Its IC50 is 2.83 µM.

Question: What about the MST [13] of the same compound?
Answer: The MST was 14.25 days.

Question: With `C#CCN(C)CCCOc1cc(NCc2ccc(/C=C/C(=O)NO)cc2)ccc1Cl` as the compound, how does the Activity [1] read?
Answer: The Activity was “Active”.

Question: And the IC50 [2]?
Answer: Its IC50 is 1160 nM.

Question: What about the Activity [3] of the same compound?
Answer: The Activity was “Active”.

Question: What about the Survival [4] of the same compound?
Answer: Its Survival is 14 days.

Question: What about the IC50 [5] of the same compound?
Answer: Its IC50 is 4 nM.

Question: And the MST [6]?
Answer: Its MST is 19.5 days.

Question: What about the Activity ([7]; DDE = dose-dependent effect) of the same compound?
Answer: Its Activity is “Dde”.

Question: What about the IC50 [8] of the same compound?
Answer: The IC50 was 0.12 µM.

Question: And the IC50 [9]?
Answer: Its IC50 is 80 nM.

Question: And the Activity [10]?
Answer: Its Activity is “Active”.

Question: What about the IC50 [11] of the same compound?
Answer: The IC50 was 510 nM.

Question: And the IC50 [12]?
Answer: The IC50 was 3.24 µM.

Question: And the MST [13]?
Answer: The MST was 12.75 days.
